What all share (experiment): Antimicrobial challenge test in analogy to NF EN ISO 11930
Type in all cases: cell-based

Experiment [1] has as its system Candida albicans. As to the method: (§1) The antimicrobial efficacy was assessed in analogy to the regulatory challenge test method (NF EN IS011930). Thus, mixtures of the respective active(s) with physiological serum with 0.85 wt.-% NaCl in the concentrations as outlined below are prepared under sterile conditions. Controls were also prepared under sterile conditions. The control as well as the mixtures were then deposed in 96-deep well plates (1.6 ml/well). The wells were contaminated with the respective bacterial or the fungal strains at 2.5*10^5 to 5.6*10^5 cfu/ml for the bacteria and 1*10^4 to 2.5*10^4 cfu/ml for the fungi to obtain the initial contamination as outlined below. After the contamination, each well was thoroughly mixed to ensure a homogeneous distribution of microbes. Then each plate was incubated at 22° C. for 24 h. The counting of the (remaining) population is carried out 24 h after contamination. Then, the average log reduction is calculated [−log 10{(value inoculum)/(value sample)}] which is represented in tables 1-5.

Experiment [2] has as its system Aspergillus brasiliensis. Particulars: 0.3 wt.-% DBO, 24 h at 22° C. The protocol:
as §1, with “The wells were contaminated with the respective bacterial or the fungal strains at 2.5*10^5 to 5.6*10^5 cfu/ml for the bacteria and 1*10^4 to 2.5*10^4 cfu/ml for the fungi to obtain the initial contamination as outlined below.” left out

For experiment [3], the system named is Staphylococcus aureus. Particulars: 0.3 wt.-% HAP, 24 h. The protocol: as §1
In experiment [4] the test system is Escherichia coli. Particulars: 0.2 wt.-% Sodium Benzoate, 24 h. The protocol:
as §1

On to `c1ccc2oc(-c3ccc(-c4nc5ccccc5o4)cc3)nc2c1` [DBO, 1,4-di(benzoxazol-2′-yl)benzene], for which the Log reduction is given as −0.51 in experiment [1] (0.3 wt.-% DBO, 24 h at 22° C.) and −2.05 in experiment [2]. The “24 h colony count” value in experiment [1] (0.3 wt.-% DBO, 24 h at 22° C., inoculum 32000 cfu/ml) amounted to 10000 cfu/ml; in experiment [2] (inoculum 45000 cfu/ml) it was 400 cfu/ml.
With `CC(=O)c1ccc(O)cc1` [HAP, 1-(4-hydroxyphenyl)-ethanone], the Log reduction in experiment [3] is given as −1.16. Further, in experiment [3] (550000 cfu/ml at 0 h), the “Staphylococcus aureus colony count” value amounted to 70000 cfu/ml.
On to `OCCCO` [PDO, 1,3-propanediol], for which the Log reduction in experiment [1] (1.0 wt.-% PDO, 24 h) is on record as −0.24. In addition, in experiment [1] (1.0 wt.-% PDO, 24 h, 70000 cfu/ml at 0 h), the “Candida albicans colony count” value amounted to 40000 cfu/ml.
With `O=C([O-])c1ccccc1.[Na+]` [Sodium Benzoate, sodium benzoate], in experiment [4], the Log reduction entry was “+0.40”. Besides, in experiment [4] (400000 cfu/ml at 0 h), the “Escherichia coli colony count” value turned out to be 1000000 cfu/ml.

Values taken from patent US20220322667A1, “MICROBIOCIDAL USE” (DSM IP ASSETS B.V., priority 2019, published 2022).
